The record followed here is patent publication US10253060B2, “Terpenoid derivatives” (Daiichi Sankyo Company, Limited, priority 2013, dated 2019).

In one series the test system is Nqo1 gene. Briefly: Effect of inducing Nrf2 target gene (in vivo): Nqo1 gene expression in mouse kidney after oral administration. Conditions: for Nqo1 gene expression level: solvent group defined as 1, mean ± SD, 6 mice; for induction of the Nqo1 gene (in words): oral, derivative B at a dose of 1 mg/kg. Also noted: species or system C57 Black 6 mouse. The protocol: The Nqo1 gene was used as the Nrf2 target gene.
Respective suspensions of terpenoid derivative B of the present invention obtained in Example 1 and CDDO-Me were prepared using 0.5 w/v % methylcellulose solution 400 cP (Wako Pure Chemical Industries, Ltd., catalog No. 133-14255) as a solvent. Each suspension was orally administered once a day for 12 consecutive days at a dose of 1, 3, or 10 mg/kg with administration volume of 10 mL/kg to each C57 Black 6 mouse (Charles River Laboratories Japan, Inc., male, 8 weeks old at the time of receipt, 10 weeks old at the start of the experiment). On the next day of the final administration, the mouse was euthanized, and the kidney was sampled. From the sampled kidney, mRNA was collected using an extraction kit (manufactured by Qiagen N.V., RNeasy Mini Kit, catalog No. 74106). From the obtained mRNA, cDNA was prepared using a cDNA synthesis kit (manufactured by GE Healthcare Life Sciences, First-Strand cDNA Synthesis Kit). The obtained cDNA was amplified using a reagent (manufactured by Applied Biosystems, Inc., TaqMan(R) Gene Expression Master Mix (catalog No. 4369016)) and a probe, and subjected to real-time quantitative PCR (Real-time PCR HT7900 manufactured by Applied Biosystems, Inc. was used). […] Each group consisted of 6 mice and was indicated as a mean and standard deviation.

For series [1], the system named is ARPE-19 cells. Nature of the series: Cytotoxicity, LDH-Cytotoxic Test in ARPE-19 cells. Conditions: 10 μM, approx. 16 hours, 3 wells. The series is classed as cell-based, human. The protocol: ARPE-19 cells (human retinal pigment epithelium cell line, ATCC, catalog No. CRL-2302) were cultured (5% CO2, 37° C.). A DMEM/F12 (Life Technologies Japan Ltd., catalog No. 11330-032) mixed medium containing 10% inactivated FBS was used. The medium contained 100 units/mL (final concentration) penicillin and 100 μg/[…] (final concentration) streptomycin.
The ARPE-19 cells were seeded at 5000 cells/well in a 96-well plate. The amount of the medium was 50 μL. Approximately 3 hours later, 50 μL of a medium containing CDDO-Me or each of terpenoid derivatives A to H was added thereto, followed by culture for approximately 16 hours. Then, cytotoxicity was evaluated using LDH-Cytotoxic Test (Wako Pure Chemical Industries, Ltd., catalog No. 299-50601). The evaluation method followed the attached document. Each group consisted of 3 wells and was indicated as cytotoxicity at the concentration of 10 μM. The means thereof were 43% for CDDO-Me, 2% for terpenoid derivative A, 2% for terpenoid derivative B, 2% for terpenoid derivative C, 1% for terpenoid derivative D, 2% for terpenoid derivative E, 3% for terpenoid derivative F, 3% for terpenoid derivative G, and 1% for terpenoid derivative H. Terpenoid derivatives A to H were low in cytotoxicity as compared with CDDO-Me.

Series [2] concerns ARPE-19 cells. Nature of the series: Cytoprotective action: suppression of t-BHP-induced decrease in number of live ARPE-19 cells. The series is classed as cell-based, human. Conditions: 300 μM t-BHP; for Number of live cells (percentage): no t-BHP/no compound = 100%, mean ± SD, 3 wells. How it is done:
The peroxide tert-butyl hydroperoxide (t-BHP) is known to cause oxidative stress-dependent cell injury (Chem Biol Interact 2009; 181: 366- and Food Chem Toxicol 2011; 49: 2081-).
The test compound was terpenoid derivative B of the present invention obtained in Example 1 and CDDO-Me as Comparative Example.
ARPE-19 cells were cultured (5% CO2, 37° C.) using a DMEM/F12 (Life Technologies Japan Ltd., catalog No. 11330-032) mixed medium containing 10% inactivated FBS. The medium contained 100 units/mL (final concentration) penicillin and 100 μg/mL (final concentration) streptomycin.
The ARPE-19 cells were seeded at 10000 cells/well in a 96-well plate. The amount of the medium was 100 μL. Approximately 6 hours later, the medium was replaced with a medium containing terpenoid derivative B of the present invention obtained in Example 1 or CDDO-Me. After culture for approximately 16 hours, the number of live ARPE-19 cells was measured (Cell Counting Kit-8 (catalog No. CK01) manufactured by Dojindo Laboratories was used). Then, the medium was replaced with medium containing 300 μM t-BHP (manufactured by Sigma-Aldrich Corp., catalog No. 46665) and further containing terpenoid derivative B of the present invention obtained in Example 1 or CDDO-Me. Approximately 6 hours after the addition of t-BHP, the number of live ARPE-19 cells was measured.
The number of live cells in medium containing neither t-BHP nor the test compound was defined as 100%. The number of live cells in medium containing 300 μM t-BHP and each concentration of the test compound was indicated by percentage. Each group consisted of 3 wells and was indicated as a mean and standard deviation.

Setting [3] is: 1 mg/kg oral once a day for 12 days.
The mark [4] stands for this setting: 3 mg/kg oral once a day for 12 days.
The mark [5] stands for this setting: 10 mg/kg oral once a day for 12 days.

As to `COC(=O)[C@@]12CC[C@]3(C)[C@H](C(=O)C=C4[C@@]5(C)[C@H]6O[C@@]6(C#N)C(=O)C(C)(C)[C@@H]5CC[C@]43C)[C@@H]1CC(C)(C)[C@@H](O)C2` [terpenoid derivative B], the “Nqo1 gene expression level” value is recorded as 1.2 ± 0.1 in the series on Nqo1 gene (setting [3]), 1.8 ± 0.2 with Nqo1 gene (setting [4]) and 2.3 ± 0.2 in the series on Nqo1 gene (setting [5]). The “induction of the Nqo1 gene (in words)” value with Nqo1 gene is recorded as “confirmed to induce the Nqo1 gene”. Besides, the “cytotoxicity (LDH-Cytotoxic Test), mean” value in the series on ARPE-19 cells [1] is 2%. The “Number of live cells (percentage)” value amounted to 90.3 ± 3.9% in the series with ARPE-19 cells [2] (0.03 nM test compound); 99.0 ± 10.0% in the series with ARPE-19 cells [2] (0.3 nM test compound); 119.7 ± 5.7% with ARPE-19 cells [2] (3 nM test compound); 114.3 ± 9.5% in the series on ARPE-19 cells [2] (30 nM test compound); 111.2 ± 3.8% in the series with ARPE-19 cells [2] (300 nM test compound).

For the compound `COC(=O)[C@]12CCC(C)(C)C[C@H]1[C@H]1C(=O)C=C3[C@@]4(C)C=C(C#N)C(=O)C(C)(C)[C@@H]4CC[C@@]3(C)[C@]1(C)CC2` [CDDO-Me, methyl 2-cyano-3,12-dioxooleana-1,9-dien-28-oate, reference compound], the “Nqo1 gene expression level” value is reported as 1.0 ± 0.0 in the series on Nqo1 gene (setting [3]), 1.0 ± 0.1 in the series on Nqo1 gene (setting [4]) and 1.0 ± 0.1 in the series with Nqo1 gene (setting [5]). Besides, the “induction of the Nqo1 gene (in words)” value in the series with Nqo1 gene was “not confirmed to induce the Nqo1 gene”. Further, the “cytotoxicity (LDH-Cytotoxic Test), mean” value with ARPE-19 cells [1] came to 43%. The “suppression of the decrease in the number of live cells caused by t-BHP (in words)” value in the series on ARPE-19 cells [2] is reported as “did not completely suppress the decrease in the number of live cells”. In addition, the “Number of live cells (percentage)” value in the series with ARPE-19 cells [2] (0.03 nM test compound) was found to be 61.8 ± 2.0%; in the series with ARPE-19 cells [2] (0.3 nM test compound) it was 56.7 ± 1.2%; in the series with ARPE-19 cells [2] (3 nM test compound), 74.3 ± 1.4%; in the series with ARPE-19 cells [2] (30 nM test compound), 84.7 ± 4.8%; in the series with ARPE-19 cells [2] (300 nM test compound), 76.1 ± 2.8%.
